In patent publication US10064839B2, “Methods of treating liver diseases” (Zafgen, Inc., priority 2012, dated 2018):

Tested on: diet induced obese mice (C57BL6)
Experiment: Diet induced obese mice, 10 days oral 30 mg/kg: body weight and serum cholesterol
Format: in vivo, mouse
Conditions: DIO C57BL6 mice, 30 mg/kg oral gavage; for Cholesterol Change: serum
Experimental: Compounds were tested in diet induced obese mice (C57BL6) that were on a 65% high fat diet for 8-10 weeks. Mice were dosed for 10 days by oral gavage with 30 mg/kg of the compounds listed. Their body weights were recorded along with serum chemistries including cholesterol.

For CCN(CC)C/C=C\c1cc(F)ccc1S(=O)(=O)Nc1ccc2c(c1C(=O)O)OCCc1occc1-2, the “Body Weight Change” value was −2.1% and the “Cholesterol Change” value was “No change”.
With CCN(CC)C/C=C\c1cc(F)ccc1S(=O)(=O)Nc1ccc2c(ncc3occc32)c1C(=O)O the “Body Weight Change” value was −16% and the “Cholesterol Change” value was “No change”.
